# Test results taken from patent US7829589B2, “Sulfonamide compounds and uses thereof” (Elixir Pharmaceuticals, Inc., priority 2005, dated 2010).
# Entries after “also recorded” stand apart in the source; their conditions may differ. Ends that are not written are not given here.
# What was measured:
# [1] = Preliminary PK studies (IV/PO), oral bioavailability and brain/plasma ratio; type: in vivo; conditions: mouse, male diet-induced obese C57bl/6 mice; for Kp: brain and plasma, brain AUC vs plasma AUC; for bioavailability: oral bioavailability, plasma AUC PO vs IV
# Experimental: Male, diet-induced obese, ad libidum fed, C57bl/6 mice were used for these preliminary PK studies. They were dosed (n=3 mice per data point) either IV or PO. Mice ere sacrificed and the blood/brains collected at the following times: IV samples were taken at 5, 15, 30, 60, 120, 240, 480 minutes after dosing; PO samples were taken at 15, 30, 60, 120, 240, 480 minutes after dosing. Plasma and brain samples were evaluated for the presence of compound. Oral bioavailability (% F) was determined by comparing the plasma AUCIV and AUCPO. The brain/plasma ratio was determined by comparing the brain AUC and plasma AUC values.
# C57bl/6 mice [2] = experiment: Ghrelin-induced food intake in mice dosed ip; type: in vivo; conditions: 1, 3, 10, 30 mpk ip after ghrelin ip; food intake at 1, 2, 4, 6 hours; relative to vehicle
# Experimental: Ad libidum low fat chow-fed male C57bl/6 mice were acclimated to individual housing for >5 days prior to the experiment. On the morning of the experiment food was removed from the cages and animals were then dosed ip (n=8/group) with either vehicle or ghrelin followed one minute later by a second ip injection containing either vehicle or one of several doses of compound (1, 3, 10, 30mpk ip). Immediately after the second dosing food was returned to the cages and food intake was measured 1, 2, 4 and 6 hours later.
# mice (DIO) = experiment: Glucose tolerance test (GTT), insulin sensitivity in DIO mice; type: in vivo
# Excerpt: (§1) Group housed, male, C57bl/6 mice received high fat diet and water ad lib to establish diet-induced obesity, and for the duration of the experiment. After acclimating to individual housing for at least 5 days, mice were then acclimated to bid oral gavage with vehicle for 7 days. Once acclimated, mice were culled into equal groups (n>10/group) according to body weight and compound dosing began. Mice received either vehicle or compound (bid, po) for periods up to 28 days, during which body weight and food intake were measured daily. Representative cohorts (based on BW) for each group were removed at 7, 14, 21 or 28 days for glucose tolerance tests and tissue analysis.
# On the night prior to the GTT, mice (DIO) within each dose group (n=8/group) had their body weight measured and were then fasted overnight for 16 hours prior to the GTT. On the morning of the GTT a 40 µL blood sample was removed from the tail for baseline fasted blood glucose and plasma insulin measurements. Mice then received their normal dose of compound. One hour later mice were dosed with glucose ([…], either IP or PO) and further tail bleeds (40 µL) were taken at 15, 30, 60 and 120 minutes after the glucose dose for blood glucose and plasma insulin measurements. Mice were sacrificed following the final sample time. Baseline fasted blood glucose levels are provided in FIG. 4a for compound 57 and in FIG. 4d for compound 94.
# GHS-R = GHS-R (Homo sapiens, UniProt Q92847); experiment: GHS-R antagonist activity (Ki) in a cell based assay
# Summary of the method: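 Transfected COS-7 cells were labelled 24 h with [^3H]-myo-inositol and preincubated 30 min at 37 °C in HEPES buffer pH 7.4 with 10 mM LiCl, optionally with 1 U/ml adenosine deaminase. Compound was applied for 45 min at 37 °C. [^3H]-inositol phosphates were extracted with perchloric acid and isolated by anion-exchange resin.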
# C57bl/6 mice [3] = experiment: 28 days oral dosing in diet-induced obese mice: body weight and food intake; type: in vivo; conditions: bid po up to 28 days
# Excerpt: as §1
# mice [4] = experiment: Plasma HbA1c and lipid profile after 28 day dosing; type: in vivo; conditions: at 28 days; for cholesterol levels / plasma HbA1c levels: versus vehicle
# Excerpt: as §1
# Mice are sacrificed by CO2 asphyxiation and terminal blood samples were collected via cardiac puncture. For HbA1c, whole blood is analyzed using a DCA2000+ glycated hemoglobin analyzer (Bayer Healthcare, Indianapolis, Ind.). Triglycerides, total cholesterol, and HDL-cholesterol were all measured using a Cholestech LDX lipid profile analyzer (Cholestech, Hayward, Calif.). As shown in FIG. 6 and FIG. 7, both plasma HbA1c and cholesterol levels were improved at 28 days in animals treated with compound 57 and compound 94 versus animals treated with vehicle alone.
# mice [5] = experiment: Fast refeed assay; type: in vivo
# Experimental: Food is removed at 6 pm for an overnight (˜16 hour) fast. Beginning at 10 am on the next morning, mice are administered with either vehicle (e.g., saline+acetic acid, pH=5) or the compound of interest. Mice are then returned to their home cages and pre-weighed food (approximately 90 grams) is immediately returned to the food hoppers in each cage. The weight of the food remaining in the food hoppers is measured at 30 minutes, 1 hour, 2 hours, and 4 hours post compound/vehicle administration. Final body weights are then recorded for the mice.
# [6] = FIGS. 4a-4f, 7 to 28 days oral dosing
# Chain of GHS-R (Q92847 whole entry, species assumed): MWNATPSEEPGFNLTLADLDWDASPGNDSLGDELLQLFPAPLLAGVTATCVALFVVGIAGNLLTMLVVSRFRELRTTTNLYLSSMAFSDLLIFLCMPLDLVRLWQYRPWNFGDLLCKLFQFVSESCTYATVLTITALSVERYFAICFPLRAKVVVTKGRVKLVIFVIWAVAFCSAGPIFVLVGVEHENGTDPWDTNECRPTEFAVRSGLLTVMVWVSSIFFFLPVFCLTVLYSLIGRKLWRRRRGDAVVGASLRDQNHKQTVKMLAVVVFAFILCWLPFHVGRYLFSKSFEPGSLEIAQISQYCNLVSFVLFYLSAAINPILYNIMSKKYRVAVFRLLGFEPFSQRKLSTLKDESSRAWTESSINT
compound,measurement,setting,value
"CCN(CC)CCCS(=O)(=O)N[C@H](CCc1ccccc1)c1nc(Cc2ccc(Br)cc2)no1 [Compound 57, 3-Diethylamino-propane-1-sulfonic acid {(R)-1-[3-(4-bromo-benzyl)-[1,2,4]oxadiazol-5-yl]-3-phenyl-propyl}-amide]",Kp,[1],0.139
same,bioavailability,[1],10.2%
same,ghrelin-induced food intake,C57bl/6 mice [2],block ghrelin-induced food intake; also recorded: reduced food intake
same,insulin sensitivity,mice (DIO); [6],improvement in insulin sensitivity
same,insulin sensitivity,mice (DIO); GTT at 7 days of oral dosing,improved insulin sensitivity
same,insulin sensitivity,mice (DIO); GTT at 21 days of oral dosing,improved insulin sensitivity
same,Ki,GHS-R,< 100 nM
same,body weight,C57bl/6 mice [3],decreased body weight; also recorded: decrease in body weight
same,food intake,C57bl/6 mice [3],No apparent effect on food intake
same,cholesterol levels,mice [4],improved cholesterol levels
same,plasma HbA1c levels,mice [4],improved plasma HbA1c levels
"CCN(CC)CCCS(=O)(=O)N[C@H](CCc1ccccc1)c1nc(-c2ccc(OC)cc2)n[nH]1 [Compound 94, 3-Diethylamino-propane-1-sulfonic acid {(R)-1-[5-(4-methoxy-phenyl)-2H-[1,2,4]triazol-3-yl]-3-phenyl-propyl}-amide]",Kp,[1],0.087
same,bioavailability,[1],63.2%
same,ghrelin-induced food intake,C57bl/6 mice [2],block ghrelin-induced food intake; also recorded: reduced food intake
same,insulin sensitivity,mice (DIO); [6],improvement in insulin sensitivity
same,insulin sensitivity,mice (DIO); GTT at 7 days of oral dosing,improved insulin sensitivity
same,insulin sensitivity,mice (DIO); GTT at 28 days of oral dosing,improved insulin sensitivity
same,Ki,GHS-R,< 100 nM
same,body weight,C57bl/6 mice [3],decreased body weight; also recorded: decrease in body weight
same,food intake,C57bl/6 mice [3],No apparent effect on food intake
same,triglyceride levels,mice [4],improved triglyceride levels
same,cholesterol levels,mice [4],improved cholesterol levels
same,plasma HbA1c levels,mice [4],improved plasma HbA1c levels
"CCN(CC)CCCS(=O)(=O)NC(C)(C)c1nc(-c2ccc(OC)cc2)no1 [Compound 155, 3-Diethylamino-propane-1-sulfonic acid {1-[3-(4-methoxy-phenyl)-[1,2,4]oxadiazol-5-yl]-1-methyl-ethyl}-amide]",Ki,GHS-R,100 to 500 nM
"CCN(CC)CCCS(=O)(=O)NCc1nc(-c2ccc(OC)cc2)n[nH]1 [Compound 156, 3-Diethylamino-propane-1-sulfonic acid [5-(4-methoxy-phenyl)-2H-[1,2,4]triazol-3-ylmethyl]-amide]",Ki,GHS-R,100 to 500 nM
"CCN(CC)CCCS(=O)(=O)NCc1nc(Cc2ccc(Cl)cc2)n[nH]1 [Compound 157, 3-Diethylamino-propane-1-sulfonic acid [5-(4-chloro-benzyl)-2H-[1,2,4]triazol-3-ylmethyl]-amide]",Ki,GHS-R,100 to 500 nM
"CCN(CC)CCCS(=O)(=O)N[C@@H](CC(C)C)c1nc(-c2ccc(OC)cc2)n[nH]1 [Compound 159, (S)-3-Diethylamino-propane-1-sulfonic acid {1-[5-(4-methoxy-phenyl)-2H-[1,2,4]triazol-3-yl]-3-methyl-butyl}-amide]",Ki,GHS-R,100 to 500 nM
"CCN(CC)CCCS(=O)(=O)N[C@H](CC(C)C)c1nc(-c2ccc(OC)cc2)n[nH]1 [Compound 160, (R)-3-Diethylamino-propane-1-sulfonic acid {1-[5-(4-methoxy-phenyl)-2H-[1,2,4]triazol-3-yl]-3-methyl-butyl}-amide]",Ki,GHS-R,100 to 500 nM
"substance P (RPKPQQFFGLM-NH2; ends and bridges not checked; UniProt P20366 58-68, looked up)",feeding activity,mice [5],alters feeding activity
